# Data reported in US12357631B2 (priority 2018, dated 2025).
# Target: PB2 (Influenza A virus, UniProt P03428)
# Assay: biochemical
# Assay type: binding
# Sequence of PB2 (P03428 whole entry, looked up): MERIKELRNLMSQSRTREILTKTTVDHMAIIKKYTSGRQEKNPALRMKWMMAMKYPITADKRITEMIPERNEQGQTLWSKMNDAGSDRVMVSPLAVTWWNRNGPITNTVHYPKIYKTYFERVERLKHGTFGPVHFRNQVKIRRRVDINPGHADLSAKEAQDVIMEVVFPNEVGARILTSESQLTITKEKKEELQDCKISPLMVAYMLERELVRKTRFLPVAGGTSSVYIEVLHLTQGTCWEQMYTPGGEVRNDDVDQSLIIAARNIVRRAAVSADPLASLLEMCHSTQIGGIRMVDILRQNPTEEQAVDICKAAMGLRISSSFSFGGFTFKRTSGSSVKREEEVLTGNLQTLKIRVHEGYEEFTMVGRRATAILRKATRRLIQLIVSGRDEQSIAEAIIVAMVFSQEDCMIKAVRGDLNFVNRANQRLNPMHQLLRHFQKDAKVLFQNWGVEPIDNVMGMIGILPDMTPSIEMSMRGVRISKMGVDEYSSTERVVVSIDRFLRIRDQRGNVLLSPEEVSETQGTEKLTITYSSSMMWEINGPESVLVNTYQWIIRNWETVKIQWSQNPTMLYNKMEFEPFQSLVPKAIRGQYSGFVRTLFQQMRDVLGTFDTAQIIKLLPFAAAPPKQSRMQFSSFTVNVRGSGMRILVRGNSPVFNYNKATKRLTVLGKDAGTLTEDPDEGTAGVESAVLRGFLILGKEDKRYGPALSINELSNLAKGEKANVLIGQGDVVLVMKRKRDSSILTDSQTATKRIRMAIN
row,Structure (SMILES),EC50 [µM]
1,CCCOCCCCCCCN(C)C(=O)N[C@@H]1CCC[C@H](Nc2nc(-c3c[nH]c4ncc(F)cc34)ncc2F)C1 [Compound A199],> 100
2,O=C(NCc1ccc(C(=O)O)cc1)OCc1ccnc(C(=O)N[C@@H]2CCC[C@H](Nc3nc(-c4c[nH]c5ncc(F)cc45)ncc3F)C2)c1 [Compound A97],< 5
3,CCOCCOCCCCCN(C)C(=O)NCC(C)CNc1nc(-c2c[nH]c3ncc(F)cc23)ncc1F (centres unmarked) [Compound A218],> 100
4,CCOCCOCCOCCNC(=O)N(CCc1ccccc1)[C@@H]1CCC[C@H](Nc2nc(-c3c[nH]c4ncc(F)cc34)ncc2F)C1 [Compound B2],50 to 100
5,O=C(N[C@@H]1CCC[C@H](Nc2nc(-c3c[nH]c4ncc(F)cc34)ncc2F)C1)c1cc(Oc2ccccc2)ccn1 [Compound A66],> 100
6,O=C(NCc1cccnc1)OCc1ccnc(C(=O)N[C@@H]2CCC[C@H](Nc3nc(-c4c[nH]c5ncc(F)cc45)ncc3F)C2)c1 [Compound A93],5 to 25
7,Cc1ccccc1CNC(=O)OCc1ccnc(C(=O)N[C@H]2CCC[C@@H](Nc3nc(-c4c[nH]c5ncc(F)cc45)ncc3F)C2)c1 [Compound A123],> 100
8,COCCOCc1ccnc(C(=O)N[C@@H]2CCC[C@H](Nc3nc(-c4c[nH]c5ncc(F)cc45)ncc3F)C2)c1 [Compound A45],25 to 50
9,CCOCCOCCOCCN(C(=O)N(C)C)[C@@H]1CCC[C@H](Nc2nc(-c3c[nH]c4ncc(F)cc34)ncc2F)C1 [Compound B6],> 100
10,CCOc1ccccc1OCCCCCN(C)C(=O)N[C@H]1CCC[C@@H](Nc2nc(-c3c[nH]c4ncc(F)cc34)ncc2F)C1 [Compound A225],> 100
11,Cc1ccc(C(=O)N[C@H]2CCC[C@@H](Nc3nc(-c4c[nH]c5ncc(F)cc45)ncc3F)C2)cn1 [Compound A56],< 5
12,O=C(NCCOCCOCCOCCO)N[C@@H]1CCC[C@H](Nc2nc(-c3c[nH]c4ncc(F)cc34)ncc2F)C1 [Compound A166],5 to 25
13,COc1ccc(CNC(=O)OCc2ccnc(C(=O)N[C@H]3CCC[C@@H](Nc4nc(-c5c[nH]c6ncc(F)cc56)ncc4F)C3)c2)cc1OC [Compound A126],> 100
14,CCOCCOCCCCCOC(=O)N[C@@H]1CCC[C@H](Nc2nc(-c3c[nH]c4ncc(F)cc34)ncc2F)C1 [Compound A281],> 100
15,CCCCOCCCCc1ccnc(C(=O)N[C@H]2CCC[C@@H](Nc3nc(-c4c[nH]c5ncc(F)cc45)ncc3F)C2)c1 [Compound A31],> 100
16,O=C(O)COCCNC(=O)OCc1ccnc(C(=O)N[C@@H]2CCC[C@H](Nc3nc(-c4c[nH]c5ncc(F)cc45)ncc3F)C2)c1 [Compound A118],< 5
17,C[C@@H](NC(=O)OCc1ccnc(C(=O)N[C@@H]2CCC[C@H](Nc3nc(-c4c[nH]c5ncc(F)cc45)ncc3F)C2)c1)C(=O)O [Compound A141],< 5
18,CCOCCOCCCCCN(C(=O)N[C@@H]1CCC[C@H](Nc2nc(-c3c[nH]c4ncc(Cl)cc34)ncc2Cl)C1)C(C)C [Compound A249],> 100
19,CCOCCCCCOCC(=O)N[C@@H]1CCC[C@H](Nc2nc(-c3c[nH]c4ncc(F)cc34)ncc2F)C1 [Compound A274],> 100
20,CC(C)[C@@H](NC(=O)OCc1ccnc(C(=O)N[C@@H]2CCC[C@H](Nc3nc(-c4c[nH]c5ncc(F)cc45)ncc3F)C2)c1)C(=O)O [Compound A142],< 5
21,O=C(N[C@H]1CCC[C@@H](Nc2nc(-c3c[nH]c4ncc(F)cc34)ncc2F)C1)c1cc(-c2ccccc2)ccn1 [Compound A54],5 to 25

row,Structure (SMILES),EC50 [µM]
1,CCOc1ccccc1OCCCc1ccnc(C(=O)N[C@@H]2CCC[C@H](Nc3nc(-c4c[nH]c5ncc(F)cc45)ncc3F)C2)c1 [Compound A29],> 100
2,CCOCCOCCCCCN(Cc1ccncc1)C(=O)N[C@H]1CCC[C@@H](Nc2nc(-c3c[nH]c4ncc(F)cc34)ncc2F)C1 [Compound A208],> 100
3,COCc1cccc(-c2ccnc(C(=O)N[C@@H]3CCC[C@H](Nc4nc(-c5c[nH]c6ncc(F)cc56)ncc4F)C3)c2)c1 [Compound A61],25 to 50
4,O=C(NCc1ccccn1)OCc1ccnc(C(=O)N[C@H]2CCC[C@@H](Nc3nc(-c4c[nH]c5ncc(F)cc45)ncc3F)C2)c1 [Compound A96],5 to 25
5,CCOCCCCCCc1ccnc(C(=O)N[C@H]2CCC[C@@H](Nc3nc(-c4c[nH]c5ncc(F)cc45)ncc3F)C2)c1 [Compound A30],> 100
6,CN(CCOCCOCCOCCC(=O)O)C(=O)N[C@H]1CCC[C@@H](Nc2nc(-c3c[nH]c4ncc(F)cc34)ncc2F)C1 [Compound A171],25 to 50
7,CCOCc1ccc(C(=O)N[C@@H]2CCC[C@H](Nc3nc(-c4c[nH]c5ncc(F)cc45)ncc3F)C2)nc1 [Compound A41],50 to 100
8,O=C(O)CCOCCOCCOCCNC(=O)N[C@H]1CCC[C@@H](Nc2nc(-c3c[nH]c4ncc(F)cc34)ncc2F)C1 [Compound A172],5 to 25
9,O=C(N[C@H]1CCC[C@@H](Nc2nc(-c3c[nH]c4ncc(F)cc34)ncc2F)C1)N1CCc2ccccc2C1 [Compound A2],> 100
10,CCOCCCCCCCCN(C)C(=O)N[C@H]1CCC[C@@H](Nc2nc(-c3c[nH]c4ncc(F)cc34)ncc2F)C1 [Compound A211],> 100
11,COC(=O)N[C@H]1CCC[C@@H](Nc2nc(-c3c[nH]c4ncc(F)cc34)ncc2F)C1 [Compound A286],25 to 50
12,CCCCCCCCCCCN(C)C(=O)N[C@@H]1CCC[C@H](Nc2nc(-c3c[nH]c4ncc(F)cc34)ncc2F)C1 [Compound A175],50 to 100
13,O=C(NCc1ccccc1)OCc1ccnc(C(=O)N[C@@H]2CCC[C@H](Nc3nc(-c4c[nH]c5ncc(F)cc45)ncc3F)C2)c1 [Compound A91],> 100
14,CCOCCCCCOCCNC(=O)N[C@H]1CCC[C@@H](Nc2nc(-c3c[nH]c4ncc(F)cc34)ncc2F)C1 [Compound A192],> 100
15,CCOCCOCc1cc(-c2ccnc(C(=O)N[C@H]3CCC[C@@H](Nc4nc(-c5c[nH]c6ncc(F)cc56)ncc4F)C3)c2)ccc1F [Compound A113],> 100
16,CCOC(=O)CN1CCC[C@H](Nc2nc(-c3c[nH]c4ncc(F)cc34)ncc2F)C1 [Compound C11],25 to 50
17,O=C(NCC1CCCO1)OCc1ccnc(C(=O)N[C@H]2CCC[C@@H](Nc3nc(-c4c[nH]c5ncc(F)cc45)ncc3F)C2)c1 (some centres unmarked) [Compound A106],5 to 25
18,O=C(N[C@@H]1CCC[C@H](Nc2nc(-c3c[nH]c4ncc(F)cc34)ncc2F)C1)c1cc(CCCOCCOCCO)ccn1 [Compound A59],< 5
19,O=C(NCc1ccc2c(c1)OCO2)OCc1ccnc(C(=O)N[C@H]2CCC[C@@H](Nc3nc(-c4c[nH]c5ncc(F)cc45)ncc3F)C2)c1 [Compound A130],> 100
20,CCCOCCCCCCCN(C)C(=O)N[C@@H]1CCC[C@H](Nc2nc(-c3c[nH]c4ncc(F)cc34)ncc2F)C1 [Compound A236],50 to 100
21,O=C(NCc1cccc(F)c1)OCc1ccnc(C(=O)N[C@H]2CCC[C@@H](Nc3nc(-c4c[nH]c5ncc(F)cc45)ncc3F)C2)c1 [Compound A125],> 100

row,Structure (SMILES),EC50 [µM]
1,CCOCCOCCCCCN(CC)C(=O)N[C@H]1CCC[C@@H](Nc2nc(-c3c[nH]c4ncc(F)cc34)ncc2F)C1 [Compound A228],50 to 100
2,CCOCCOCCc1cccc(N(C)C(=O)N[C@H]2CCC[C@@H](Nc3nc(-c4c[nH]c5ncc(F)cc45)ncc3F)C2)c1 [Compound A212],> 100
3,CCCCCOCCOCCN(C)C(=O)N[C@@H]1CCC[C@H](Nc2nc(-c3c[nH]c4ncc(F)cc34)ncc2F)C1 [Compound A177],> 100
4,Cc1cccc(C(=O)N[C@H]2CCC[C@@H](Nc3nc(-c4c[nH]c5ncc(F)cc45)ncc3F)C2)n1 [Compound A47],5 to 25
5,CCOCCOc1cccc(CCN(C)C(=O)N[C@@H]2CCC[C@H](Nc3nc(-c4c[nH]c5ncc(F)cc45)ncc3F)C2)c1 [Compound A186],> 100
6,CCCOCCCCCc1ccnc(C(=O)N[C@@H]2CCC[C@H](Nc3nc(-c4c[nH]c5ncc(F)cc45)ncc3F)C2)c1 [Compound A28],> 100
7,CCCCc1ccnc(C(=O)N[C@H]2CCC[C@@H](Nc3nc(-c4c[nH]c5ncc(F)cc45)ncc3F)C2)c1 [Compound A42],> 100
8,CC(NC(=O)OCc1ccnc(C(=O)N[C@H]2CCC[C@@H](Nc3nc(-c4c[nH]c5ncc(F)cc45)ncc3F)C2)c1)c1ccccn1 (some centres unmarked) [Compound A136],5 to 25
9,O=C(NCc1cccc(C(=O)O)c1)OCc1ccnc(C(=O)N[C@@H]2CCC[C@H](Nc3nc(-c4c[nH]c5ncc(F)cc45)ncc3F)C2)c1 [Compound A98],< 5
10,CCOCc1cccc(COCC(=O)N[C@@H]2CCC[C@H](Nc3nc(-c4c[nH]c5ncc(F)cc45)ncc3F)C2)c1 [Compound A275],> 100
11,CC(NC(=O)OCc1ccnc(C(=O)N[C@H]2CCC[C@@H](Nc3nc(-c4c[nH]c5ncc(F)cc45)ncc3F)C2)c1)c1ccccc1F (some centres unmarked) [Compound A143],> 100
12,CCOCCOCCOCCS(=O)(=O)N[C@@H]1CCC[C@H](Nc2nc(-c3c[nH]c4ncc(F)cc34)ncc2F)C1 [Compound A266],5 to 25
13,O=C(N[C@@H]1CCC[C@H](Nc2nc(-c3c[nH]c4ncc(F)cc34)ncc2F)C1)c1ccc(-c2ccccc2)nc1 [Compound A63],5 to 25
14,O=COCCOCCNC(=O)OCc1ccnc(C(=O)N[C@H]2CCC[C@@H](Nc3nc(-c4c[nH]c5ncc(F)cc45)ncc3F)C2)c1 [Compound A115],< 5
15,O=C(N[C@H]1CCC[C@@H](Nc2nc(-c3c[nH]c4ncc(F)cc34)ncc2F)C1)c1cnc2ccccc2c1 [Compound A55],5 to 25
16,O=C(N[C@H]1CCC[C@@H](Nc2nc(-c3c[nH]c4ncc(F)cc34)ncc2F)C1)c1ccccn1 [Compound A35],50 to 100
17,CN(CCOCCOCCOCCN)C(=O)N[C@@H]1CCC[C@H](Nc2nc(-c3c[nH]c4ncc(F)cc34)ncc2F)C1 [Compound A173],50 to 100
18,O=C(NCCc1cccc(Oc2ccccc2)c1)OCc1ccnc(C(=O)N[C@H]2CCC[C@@H](Nc3nc(-c4c[nH]c5ncc(F)cc45)ncc3F)C2)c1 [Compound A109],> 100
19,CCOCCOCCOCCNC(=O)N[C@@H]1CCC[C@H](Nc2nc(-c3c[nH]c4ncc(F)cc34)ncc2F)C1 [Compound A167],> 100
20,CN(CCOCCOCCOCCO)C(=O)N[C@H]1CCC[C@@H](Nc2nc(-c3c[nH]c4ncc(F)cc34)ncc2F)C1 [Compound A190],> 100
